Reference: US20250255847A1, “[…]s: Novel Drugs for Triple Negative Breast Cancer” (SIMMARON RSEARCH INC, priority 2024, published 2025)

Molecular target: T1, full-length STAT5b protein (Homo sapiens, UniProt P51692)
T1 construct: full-length STAT5b protein melting was assessed with (J) SIM-1, (K) SIM-2, and (L) stattic
T1 sequence (P51692 1-787): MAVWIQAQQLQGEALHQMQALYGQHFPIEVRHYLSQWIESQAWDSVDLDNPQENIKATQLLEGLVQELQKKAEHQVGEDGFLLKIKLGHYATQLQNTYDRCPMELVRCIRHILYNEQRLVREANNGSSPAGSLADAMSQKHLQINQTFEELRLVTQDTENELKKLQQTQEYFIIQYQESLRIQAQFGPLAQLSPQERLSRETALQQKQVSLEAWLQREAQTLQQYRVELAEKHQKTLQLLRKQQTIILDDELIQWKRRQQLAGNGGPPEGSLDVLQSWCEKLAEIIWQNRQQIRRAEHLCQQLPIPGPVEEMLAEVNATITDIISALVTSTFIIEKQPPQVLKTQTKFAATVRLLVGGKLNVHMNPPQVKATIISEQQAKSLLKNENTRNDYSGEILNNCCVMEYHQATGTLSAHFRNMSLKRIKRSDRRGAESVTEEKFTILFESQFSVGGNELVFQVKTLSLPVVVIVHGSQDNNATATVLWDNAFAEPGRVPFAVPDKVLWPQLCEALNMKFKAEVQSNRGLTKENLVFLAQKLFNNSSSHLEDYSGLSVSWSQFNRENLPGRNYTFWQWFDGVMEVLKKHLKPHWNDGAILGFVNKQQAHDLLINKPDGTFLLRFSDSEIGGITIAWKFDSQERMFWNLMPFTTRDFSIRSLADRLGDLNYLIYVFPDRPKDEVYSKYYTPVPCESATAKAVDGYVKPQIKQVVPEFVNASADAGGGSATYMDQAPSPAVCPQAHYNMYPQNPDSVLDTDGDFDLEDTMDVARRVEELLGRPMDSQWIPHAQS
Experiment: Protein thermal shift binding assay with STAT5b
Details: increasing doses
Experimental: FIG. 5 illustrates an embodiment of the present invention and illustrates evaluations of SIM-1 and SIM-2 as STAT3 inhibitors. (A) Protein thermal shift assay was performed to assess the melting of purified recombinant STAT3 (blue; 0.5 μg protein) (Tm=melting temperature=68.88° C.). The representative melting curves were derived after adding SIM-1 (red; 4 nM), SIM-2 (purple; 8 nM), and positive control stattic (grey; 20 nM) to the STAT3 protein. The differences of melting temperature (ΔTm) between pure protein and protein+ligands are −4.54° C., −4.16° C., and 0.39° C. for SIM-1, SIM-2, and stattic (ΔTm^cut-off>2° C.). (B) Phospho protein array analysis was conducted in cell lysates of MDA-MB-468 cells treated with DMSO control (top left), 25 ng/mL EGF (top right), EGF+10 nM SIM-1 (bottom left), and EGF+SIM-2 (bottom right) for 24 hrs. Each colored arrowhead represents a specific phosphoprotein, and the description was added in the bottom of array images. S=serine and Y=tyrosine. Relative levels of (C) Tyrosine 705 (Y705) phosphorylated STAT3, (D) Serine 727 (S727) phosphorylated STAT3, (E) Tyrosine 693 (Y693) phosphorylated STAT4, (F) Tyrosine 694 ([…]) phosphorylated STAT5A had been derived after normalizing the spot densities (n=5) with respective β-actin spots. Results are mean±SD of five different spot analyses. One-way ANOVA was adopted to test the significance of mean between groups at **p<0.01, and ****p<0.0001. Ns=no significance. Thermal shift assays of increasing doses of (G) SIM-1, (H) SIM-2, and (I) stattic with purified STAT1 protein (0.5 μg protein). The respective ΔTm values were given with the plot after matching with the color code. Similarly, full-length STAT5b protein melting was assessed with (J) SIM-1, (K) SIM-2, and (L) stattic. Results are confirmed after three different experiments.
To confirm the result, PTS assay of STAT1 with SIM-1 (FIG. 5G), SIM-2 (FIG. 5H), and stattic (FIG. 5I) was performed. […] Similar results were observed while performing the binding assay with STAT5b.

Row | SMILES | shift in the melting curve of STAT5b
1 | O=C(O)CCC(=O)NCc1csc2ccc(Cl)cc12 [SIM-1, 4-[(5-chloro-1-benzothiophen-3-yl)methylamino]-4-oxobutanoic acid] | unable to produce any significant shift
2 | CCOC(=O)c1c(NC(C)=O)sc2c(Cl)c(/C=N/O)ccc12 [SIM-2, ethyl 2-acetamido-7-chloro-6-(hydroxyiminomethyl)-1-benzothiophene-3-carboxylate] | unable to produce any significant shift
